In patent EP1056745B1, “6,9-DISUBSTITUTED 2- TRANS-(4- AMINOCYCLOHEXYL) AMINO]PURINES” (Aventis Pharmaceuticals Inc., priority 1998, dated 1999):
pIC50: −log10 of the molar value.

What was measured:
[1] = test system: neuronally differentiated PC12 cells; settings: cited from earlier work; for concentration of maximal protection from death: camptothecin-treated; for cell death: day 6, in the presence or absence of camptothecin, both or individual
cortical neurons = settings: cited from earlier work; for pIC50: protection against camptothecin-induced death
[2] = test system: neuronal PC12 cells and sympathetic neurons; settings: two model systems of neuronal survival; cited from earlier work
rat sympathetic neurons = settings: camptothecin-treated; cited from earlier work
proliferating PC12 cells = settings: cited from earlier work
[3] = test system: PC-3 Human Prostate Tumor; assay: Subrenal capsule assay, inhibition of PC-3 tumor growth; assay type: in vivo, Nude Mice; settings: for V/V0 (mean ± s.e.m.): 12 days, Experiment # 1; for %T/C: day 12, Experiment # 1
Protocol: Nude mice were housed in microisolator cages under positive air pressure. Surgical procedures and dosing were performed in a laminar flow cabinet. The subrenal capsule assay was performed as described in Bogden, A. E., Kelton, D. E., Cobb, W. R. and Esber, H. J. A rapid screening method for testing chemotherapeutic agents against human tumor xenografts. In: D. P. Houchens and A. A. Ovejera (eds.), Proceedings of the Symposium on the Use of Athymic (Nude) Mice in Cancer Research, pp 231-250. New York: Gustav Fischer New York, Inc. 1978. Briefly, tumors of 400-500 mm^3 obtained from maintenance mice were cut into 1 mm^3 pieces and the sizes checked using an ocular micrometer and a dissecting microscope. After exteriorization of the kidney, tumor pieces were implanted under the capsule of the kidneys of male nude mice (6-8 weeks of age) using a 13 Ga trochar. After implantation, the longest and shortest diameters of the tumor piece were measured using the ocular micrometer and a dissecting microscope. The kidney was placed back into the body cavity and the body wall incision closed with silk sutures and the skin incision closed with wound clips. Drug treatment was begun on the day following implantation and continued for 12 days at which time the kidneys were again exteriorized and tumor size measured as described above. Tumor volume was calculated by the formula, V = length x width^2/2 as described in Houchens, D. P., Ovejera, A. A., and Barker, A. D. The therapy of human tumors in athymic (nude) mice. In : D. P. Houchens and A. A. Ovejera (eds.), Proceedings of the Symposium on the Use of Athymic (Nude) Mice in Cancer Research, pp. 267-280. New York: Gustav Fischer New York, Inc., 1978.

[4] = test system: CDK-cyclin protein kinases; settings: moderate inhibitory activity; cited from earlier work
[5] = test system: cAMP- and cGMP-dependent kinases, and protein kinase C; settings: cited from earlier work
[6] = camptothecin-treated neuronal cells

| Structure (SMILES) | prevention of cell death [1, 6] | prevention of cell death (cortical neurons; [6]) | death of neuronal cells [2] | concentration of maximal protection from death [1] [µM] | cell death [1] | concentration of maximal protection from death (rat sympathetic neurons) [µM] | minimum concentration that fully inhibits DNA synthesis (proliferating PC12 cells) [µM] | pIC50 (cortical neurons) | V/V0 (mean ± s.e.m.) ([3]; 1 mg/kg i.p. daily) | %T/C ([3]; 1 mg/kg i.p. daily) [%] | V/V0 (mean ± s.e.m.) ([3]; 3 mg/kg i.p. daily) | %T/C ([3]; 3 mg/kg i.p. daily) [%] | pIC50 [4] | effect on other major protein kinases [5] |
| --- | --- | --- | --- | --- | --- | --- | --- | --- | --- | --- | --- | --- | --- | --- |
| Cn1cnc2nc(NCCO)nc(NCc3ccccc3)c21 [iso-olomoucine] | failed to prevent the cell death | failed to prevent the cell death | – | – | – | – | – | – | – | – | – | – | – | – |
| CN1CC[C@H](c2c(O)cc(O)c3c(=O)cc(-c4ccccc4Cl)oc23)[C@H](O)C1 [flavopiridol] | – | – | suppress the death | 1 | approximately 30% | 1 | 1 | 7.00 | – | – | – | – | – | – |
| Cl.Cl.N[C@H]1CC[C@H](Nc2nc(NCc3cccc(I)c3)c3ncn(C4CCCC4)c3n2)CC1 [Example 1, 2-[Trans-(4-aminocyclohexyl)amino]-6-(3-iodobenzylamino)-9-cyclopentylpurine dihydrochloride] | – | – | – | – | – | – | – | – | 4.8 ± 3.1 | 109 | 2.0 ± 1.0 | 44 | – | – |
| Cn1cnc2c(NCc3ccccc3)nc(NCCO)nc21 [Olomoucine, 6-(benzylamino)-2-[(2-hydroxyethyl)amino]-9-methylpurine] | – | – | suppress the death | 200 | approximately 30% | 200 | 200 | 4.00 | – | – | – | – | ~5.15 | no effect |
